Reference: patent US9131690B2, “Macrocyclic picolinamides as fungicides” (Dow AgroSciences LLC, priority 2012, dated 2015)
Like-named read-outs stand apart in the source and are kept apart here.

Legend:
[1] = tested on: Mycosphaerella graminicola; Anamorph: Septoria tritici; assay: Fungicidal activity: Leaf Blotch of Wheat (SEPTTR), wheat plants variety Yuma; format: in vivo; design: key to SEPTTR 3DC Disease Control: A: 50-100; B: More than 0-Less than 50; C: Not Tested; D: No activity noticed in this bioassay; details: for pest or weed control at 100 ppm: Zymoseptoria tritici; for SEPTTR 3DC Disease Control: 100 ppm
Procedure: Evaluation of Fungicidal Activity: Leaf Blotch of Wheat (Mycosphaerella graminicola; Anamorph: Septoria tritici; Bayer Code […]) Wheat plants (variety Yuma) were grown from seed in a greenhouse in 50% mineral soil/50% soil-less Metro mix until the first leaf was fully emerged, with 7-10 seedlings per pot. These plants were inoculated with an aqueous spore suspension of Septoria tritici either prior to or after fungicide treatments. After inoculation the plants were kept in 100% relative humidity (one day in a dark dew chamber followed by two to three days in a lighted dew chamber) to permit spores to germinate and infect the leaf. The plants were then transferred to a greenhouse at 20° C. for disease to develop.

[2] = tested on: Puccinia triticina. Synonym: Puccinia recondite f. sp. tritici; assay: Fungicidal activity: Wheat Brown Rust (PUCCRT), wheat plants variety Yuma; format: in vivo; design: key to PUCCRT 3DC Disease Control: A: 50-100; B: More than 0-Less than 50; C: Not Tested; D: No activity noticed in this bioassay; details: for pest or weed control at 100 ppm: Puccinia triticina; for PUCCRT 3DC Disease Control: 100 ppm
Procedure: Evaluation of Fungicidal Activity: Wheat Brown Rust (Puccinia triticina. Synonym: Puccinia recondite f. sp. tritici; Bayer Code PUCCRT) Wheat plants (variety Yuma) were grown from seed in a greenhouse in 50% mineral soil/50% soil-less Metro mix until the first leaf was fully emerged, with 7-10 seedlings per pot. These plants were inoculated with an aqueous spore suspension of Puccinia recondite f. sp. tritici either prior to or after fungicide treatments. After inoculation the plants were kept in 100% relative humidity overnight to permit spores to germinate and infect the leaf. The plants were then transferred to a greenhouse set at 24 C for disease to develop.

[3] = 24 h, 1 Day Protectant, read-out: SEPTTR 1DP Disease Control
[4] = 72 h, 3 Day Curative, read-out: SEPTTR 3DC Disease Control
[5] = 24 h, 1 Day Protectant, read-out: PUCCRT 1DP Disease Control
[6] = 72 h, 3 Day Curative, read-out: PUCCRT 3DC Disease Control

| Structure (SMILES) | melting point | pest or weed control at 100 ppm [1, 3] | pest or weed control at 100 ppm [1, 4] | pest or weed control at 100 ppm [2, 5] | pest or weed control at 100 ppm [2, 6] | PUCCRT 3DC Disease Control ([2]; 3 Day Curative) | SEPTTR 3DC Disease Control ([1]; 3 Day Curative) |
| --- | --- | --- | --- | --- | --- | --- | --- |
| COc1ccnc(C(=O)N[C@H]2COC(=O)[C@H](CI)[C@@H](OC(=O)C(C)C)[C@H](C)OC2=O)c1O [Compound 11] | 186 to 191 °C | 50 to 100% | 0 to 50% | 50 to 100% | 50 to 100% | – | – |
| COc1ccnc(C(=O)N[C@H]2COC(=O)[C@H](CCOC(=O)C3CC3)[C@@H](OC(=O)C(C)C)[C@H](C)OC2=O)c1O [Compound 38] | 157 to 159 °C | 50 to 100% | 0 to 50% | 50 to 100% | – | D | – |
| COc1ccnc(C(=O)N[C@H]2COC(=O)[C@H](Cc3ccc(Cl)nc3)[C@@H](OC(=O)C(C)C)[C@H](C)OC2=O)c1O [Compound 7] | 148 to 152 °C | 0 to 50% | 0 to 50% | 50 to 100% | 50 to 100% | – | – |
| COc1ccnc(C(=O)N[C@H]2COC(=O)[C@H](CCOC(=O)c3ccccc3)[C@@H](OC(=O)C(C)C)[C@H](C)OC2=O)c1O [Compound 35, 2-((3S,7R,8R,9S)-3-(3-hydroxy-4-methoxypicolinamido)-8-(isobutyryloxy)-9-methyl-2,6-dioxo-1,5-dioxonan-7-yl)ethyl benzoate] | 172 to 174 °C | 50 to 100% | – | 50 to 100% | – | D | D |
| COc1ccnc(C(=O)N[C@H]2COC(=O)[C@H](Cc3ccc(C(F)(F)F)cc3)[C@@H](OC(=O)C(C)C)[C@H](C)OC2=O)c1O [Compound 6] | 222 to 226 °C | 50 to 100% | 0 to 50% | 50 to 100% | – | D | – |
| C=CC[C@H]1C(=O)OC[C@H](NC(=O)c2nccc(OC)c2O)C(=O)O[C@@H](C)[C@@H]1OC(=O)C(C)C [Compound 17] | 161 to 165 °C | 50 to 100% | 0 to 50% | 50 to 100% | 50 to 100% | – | – |
| COc1ccnc(C(=O)N[C@H]2COC(=O)[C@H](CC(=O)OC(C)(C)C)[C@@H](OC(=O)C(C)C)[C@H](C)OC2=O)c1O [Compound 47, (3S,6S,7R,8R)-8-(2-tert-butoxy-2-oxoethyl)-3-(3-hydroxy-4-methoxypicolinamido)-6-methyl-4,9-dioxo-1,5-dioxonan-7-yl isobutyrate] | 192 to 194 °C | 50 to 100% | 50 to 100% | 50 to 100% | 50 to 100% | – | – |
| COc1ccnc(C(=O)N[C@H]2COC(=O)[C@H](Cc3cccc(-c4ccccc4)c3)[C@@H](OC(=O)C(C)C)[C@H](C)OC2=O)c1OCOC(=O)C(C)C [Compound 25] | 55 to 68 °C | 50 to 100% | 0 to 50% | 50 to 100% | 50 to 100% | – | – |
| COc1ccnc(C(=O)N[C@H]2COC(=O)[C@H](Cc3cccc4ccccc34)[C@@H](OC(=O)C(C)C)[C@H](C)OC2=O)c1O [Compound 15] | 192 to 197 °C | 50 to 100% | 0 to 50% | 50 to 100% | 0 to 50% | – | – |
| COc1ccnc(C(=O)N[C@H]2COC(=O)[C@H](Cc3ccncc3)[C@@H](OC(=O)C(C)C)[C@H](C)OC2=O)c1O [Compound 5] | 151 to 156 °C | 50 to 100% | 50 to 100% | 50 to 100% | 50 to 100% | – | – |
| COc1ccnc(C(=O)N[C@H]2COC(=O)[C@H](CCOC(=O)c3ccc(C(F)(F)F)cc3)[C@@H](OC(=O)C(C)C)[C@H](C)OC2=O)c1O [Compound 42] | 160 to 162 °C | 0 to 50% | 0 to 50% | 50 to 100% | – | D | – |
| COc1ccnc(C(=O)N[C@H]2COC(=O)[C@H](Cc3cccc(C(F)(F)F)c3)[C@@H](OC(=O)C(C)C)[C@H](C)OC2=O)c1OCOC(=O)C(C)C [Compound 24] | 100 to 103 °C | 50 to 100% | 0 to 50% | 50 to 100% | 50 to 100% | – | – |
| COc1ccnc(C(=O)N[C@H]2COC(=O)[C@H](Cc3cccc(C(F)(F)F)c3)[C@@H](OC(=O)C(C)C)[C@H](C)OC2=O)c1O [Compound 16] | 188 to 190 °C | 50 to 100% | 0 to 50% | 50 to 100% | 0 to 50% | – | – |
| COc1ccnc(C(=O)N[C@H]2COC(=O)[C@H](CC3CCCCC3)[C@@H](OC(=O)C(C)C)[C@H](C)OC2=O)c1OCOC(=O)C(C)C [Compound 27] | 117 to 119 °C | 0 to 50% | 0 to 50% | 0 to 50% | 0 to 50% | – | – |
| COc1ccnc(C(=O)N[C@H]2COC(=O)[C@H](Cc3cccc(-c4ccccc4)c3)[C@@H](OC(=O)C(C)C)[C@H](C)OC2=O)c1O [Compound 13] | 182 to 186 °C | 50 to 100% | 0 to 50% | 50 to 100% | 0 to 50% | – | – |

Continued, in another order:

| melting point | Structure (SMILES) | pest or weed control at 100 ppm [1, 3] | pest or weed control at 100 ppm [1, 4] | pest or weed control at 100 ppm [2, 5] | pest or weed control at 100 ppm [2, 6] | PUCCRT 3DC Disease Control ([2]; 3 Day Curative) | SEPTTR 3DC Disease Control ([1]; 3 Day Curative) |
| --- | --- | --- | --- | --- | --- | --- | --- |
| 167 to 168 °C | COc1ccnc(C(=O)N[C@H]2COC(=O)[C@H](CCOC(=O)c3c(F)c(F)c(F)c(F)c3F)[C@@H](OC(=O)C(C)C)[C@H](C)OC2=O)c1O [Compound 43] | 50 to 100% | 0 to 50% | 50 to 100% | 0 to 50% | – | – |
| 134 to 136 °C | CCOCC[C@H]1C(=O)OC[C@H](NC(=O)c2nccc(OC)c2O)C(=O)O[C@@H](C)[C@@H]1OC(=O)C(C)C [Compound 45] | 0 to 50% | 0 to 50% | 50 to 100% | 50 to 100% | – | – |
| 139 to 140 °C | COc1ccnc(C(=O)N[C@H]2COC(=O)[C@H](CCOCc3ccccc3)[C@@H](OC(=O)C(C)C)[C@H](C)OC2=O)c1O [Compound 60, (3S,6S,7R,8R)-8-(2-(benzyloxy)ethyl)-3-(3-hydroxy-4-methoxypicolinamido)-6-methyl-4,9-dioxo-1,5-dioxonan-7-yl isobutyrate] | 50 to 100% | 0 to 50% | 50 to 100% | 50 to 100% | – | – |
| 198 to 200 °C | COc1ccnc(C(=O)N[C@H]2COC(=O)[C@H](C)[C@@H](OC(=O)C(C)C)[C@H](C)OC2=O)c1O [Compound 46, (3S,6S,7R,8R)-3-(3-hydroxy-4-methoxypicolinamido)-6,8-dimethyl-4,9-dioxo-1,5-dioxonan-7-yl isobutyrate] | 50 to 100% | – | 50 to 100% | 0 to 50% | – | D |
| 183 to 184 °C | COc1ccnc(C(=O)N[C@H]2COC(=O)[C@H](CCc3ccccc3)[C@@H](OC(=O)C(C)C)[C@H](C)OC2=O)c1O [Compound 57, (3S,6S,7R,8R)-3-(3-hydroxy-4-methoxypicolinamido)-6-methyl-4,9-dioxo-8-phenethyl-1,5-dioxonan-7-yl isobutyrate] | 50 to 100% | 0 to 50% | 50 to 100% | 50 to 100% | – | – |
| 222 to 224 °C | COc1ccnc(C(=O)N[C@H]2COC(=O)[C@H](CCn3cc(-c4ccccc4)nn3)[C@@H](OC(=O)C(C)C)[C@H](C)OC2=O)c1O [Compound 55] | 50 to 100% | 0 to 50% | 50 to 100% | 0 to 50% | – | – |
| 127 to 134 °C | COc1ccnc(C(=O)N[C@H]2COC(=O)[C@H](Cc3ccc(C(F)(F)F)cc3)[C@@H](OC(=O)C(C)C)[C@H](C)OC2=O)c1OC(C)=O [Compound 67] | 0 to 50% | – | 50 to 100% | 50 to 100% | – | D |
| 131 to 134 °C | CCCCCCC[C@H]1C(=O)OC[C@H](NC(=O)c2nccc(OC)c2O)C(=O)O[C@@H](C)[C@@H]1OC(=O)C(C)C [Compound 63, (3S,6S,7R,8R)-8-heptyl-3-(3-hydroxy-4-methoxypicolinamido)-6-methyl-4,9-dioxo-1,5-dioxonan-7-yl isobutyrate] | 50 to 100% | 0 to 50% | 50 to 100% | – | D | – |
